This is an account of results in patent publication US4349562A, “Substituted 2-pyrrolidinones” (Hoffmann-La Roche Inc., priority 1978, dated 1982).

Read-outs that look alike come from different tables or passages of the source.

The nature of series [1]: Acute toxicity in mice. The following applies: mouse, in vivo, po. From the text: The acute toxicities of the compounds of formula I in mice are as follows: […]
In series [2] the test system is untrained rats. In words: Posthypercapnic "avoidance" acquisition (shuttle box). It is filed as in vivo. The following applies: Rattus norvegicus, carbon dioxide 12 seconds, read-out: Minimum active dosage. The method, then: (§1) The ability of the compounds of formula I to counteract experimentally produced cerebral insufficiency in mammals was determined by means of test procedures which are described hereinafter:
POSTHYPERCAPNIC "AVOIDANCE" ACQUISITION
The test apparatus is a "shuttle box" having a 10 cm high hurdle in the middle and an electrifiable grid floor. A loudspeaker is mounted in the soundproof chamber. One group of untrained rats (120-150 g.) is injected with a test preparation and a second group is injected with a control preparation. One or three hours after administration, each group is placed in a pure carbon dioxide environment for 12 seconds. A third group of 10 rats is treated neither with the test preparation nor with carbon dioxide. Three minutes after treatment with carbon dioxide the rats of all three groups must learn an escape response and an avoidance response in the "shuttle box" in the following sequence: 10 seconds silence, 5 seconds noise ("avoidance response"), 15 seconds noise+foot-shock ("escape response"). The sequence is repeated six times. For each of the six experiments the reaction time (time until the rat jumps over the hurdle) of each rat is measured and the statistical significance of the differences between the mean group reaction times is calculated by means of the Mann-Whitney U-test.

Series [3] relates to squirrel monkeys (Saimiri sciureus). In words: Inhibition of haloperidol-induced "knock out" in a "continuous avoidance" test sequence. It is filed as in vivo, squirrel monkey (Saimiri sciureus). As to conditions: in Primates, ip, before haloperidol 1.0 mg/kg p.o., delay in knock-out time, read-out: minimum active dosage. The method, then: as §1
INHIBITION OF HALOPERIDOL-INDUCED "KNOCK OUT" IN A "CONTINUOUS AVOIDANCE" TEST SEQUENCE
Male, untrained squirrel monkeys (Saimiri sciureus), each weighing 0.6 to 1.2 kg, are trained in a two-lever Skinner box in the following "continuous avoidance" sequence: "avoidance-shock", interval 40 seconds; "shock-shock", interval 20 seconds; foot-shock, maximum 5 seconds. Monkeys having a normal baseline performance receive haloperidol 1.0 mg/kg p.o. to determine the "knock-out" time (blocking of "avoidance and escape"). Monkeys having stable "knock-out" times are selected for the evaluation of test preparations as a potential cerebral insufficiency improver. The test preparations can be injected at various times before the treatment with haloperidol.
A dosage of a test preparation is considered to be active, if the administration before the treatment with haloperidol, produces a significant delay in the "knock-out" time. The test preparation is administered at different times prior to treatment with haloperidol.

Series [4] deals with untrained male rats. In words: "Passive avoidance" test with electroshock amnesia. The series is classed as in vivo. As to conditions: Rattus norvegicus, ip, 3 h, i.p., electric shock, retention time after three hours, read-out: minimum active dosage. The method, then:
as §1
"PASSIVE AVOIDANCE" TEST WITH ELECTROSHOCK AMNESIA
The test apparatus is a Skinner box having an electrifiable grid floor with a grey quadrangular platform in one corner. Untrained male rats weighing 100-200 g are placed on the platform. When the rats climb down onto the grid floor they receive an electric shock. […] Immediately after acquisition of the passive avoidance response three groups of 20 rats each are formed. One group receives an electric shock between the ears and i.p. injection of the test preparation. The second group receives an electric shock between the ears and an i.p. injection of sodium chloride. The third group receives only an i.p. injection of sodium chloride. After three hours, each rat is placed on the platform once and the retention time, that is, the time the rat remains on the platform (maximum 60 seconds), is measured. The significant activity of the test preparation in comparison to the two control groups is calculated by means of the Rang Test.

By LD50 is commonly meant the dose at which mortality reaches 50%. Low readings indicate greater toxicity, high ones lower toxicity.

Compound `COc1cccc(CN2CCCC2=O)c1` [m-Methoxybenzyl] yielded an LD50 in series [1] of 1250 to 2500 mg/kg. Also, in series [2] (ip, after 3 hours), the minimal effective dose came out at 50 mg/kg.

Regarding `COc1ccccc1C(=O)N1CCCC1=O` [o-Methoxybenzoyl], in series [1], the LD50 is 5000 mg/kg. Moreover, the minimal effective dose in series [2] (ip, after 1 hour) came out at 30 mg/kg; in series [2] (po, after 1 hour), 100 mg/kg.

`O=C1CCCN1Cc1ccc(F)cc1` [p-Fluorobenzyl] returned an LD50 in series [1] of 1000 to 2000 mg/kg. Also, the minimal effective dose in series [2] (ip, after 1 hour) was 50 mg/kg; in series [2] (po, after 1 hour), 300 mg/kg.

As for `COc1ccc(CN2CCCC2=O)cc1` [p-Methoxybenzyl, 1-(p-methoxybenzyl)-2-pyrrolidinone], the minimal effective dose stood at 1 mg/kg in series [3]; 50 mg/kg in series [4]; 10 mg/kg in series [2] (ip, after 1 hour); 50 mg/kg in series [2] (po, after 1 hour). Moreover, the LD50 in series [1] was in the range of 2000 to 4000 mg/kg.
